Assays:
estrogen receptor = test: In vitro ER degradation in ER-positive breast cancer cell lines (DC50); details: wild-type and variant ERα expressing cell lines
MCF7 cells [1] = test: Live-cell imaging growth studies and EC50 for growth inhibition, MCF7; assay type: cell-based; details: Homo sapiens, read-out: Approximate Half-maximal Effective Concentration (EC50) for growth inhibition
Description: MCF7, T47D, T47D ESR1 Y537S or T47D ESR1 D538G cells were seeded at 2×10^5 density per well in 6-well tissue culture-treated plates in DMEM/F12/10% FBS (2 mL total volume). […] The plate was then placed in the Incucyte® S3 Live-Cell Analysis System and images were acquired every 4 hours for a total of 5 days (120 hours). Data were analyzed using the Incucyte® Software v2020C which quantified cell surface area coverage as confluence values. Relative growth was calculated for all timepoints for all growth conditions relative to the confluence value observed for the control at 120 hours. Graphing and statistical analyses were performed using Graphpad Prism (GraphPad Software).

MCF7 cells [2] = test: Luminescence-based MCF7 cell proliferation assay, dose-response matrix; details: 5 days (120 hours)
Description: MCF7 cells were seeded at a density of 2×10^4 cells in 200 μL of media per well in 2 technical replicate, 96-well black, clear-bottom plates and incubated overnight at 37° C. in a 5% CO2 incubator. […] DMSO was used as the vehicle control. The plates were then incubated for 5 days at 37° C. in a 5% CO2 incubator.
The plates were equilibrated to room temperature for approximately 30 minutes. 50 μL of Cell-Titer Glo (Promega) was added to all wells of the plates, covered with aluminum foil and shaken gently by hand for less than 1 minute. The plates were then incubated for 10 minutes at room temperature. Luminescence was recorded using Envision Multi Label Reader. To assess cell viability, luminescence values for drug-treated wells were normalized to average luminescence of vehicle (DMSO) wells to obtain percent viability relative to control cells. The data were analyzed with the Combenefit software.

ERα = molecular target: T1, ERα (Homo sapiens, UniProt P03372); test: ERα levels in tamoxifen-resistant MCF7 xenografts (immunoblot); assay type: in vivo, Nu/Nu mice; details: tamoxifen-resistant MCF7, 30 mg/kg, study termination
T1 construct: robustly degrades ER in ER-positive breast cancer cell lines; endogenous in cells; host or cells: MCF7, T47D (cell culture); MCF7 and tamoxifen-resistant MCF7 xenograft tumours in mice
T1 sequence (P03372 1-595): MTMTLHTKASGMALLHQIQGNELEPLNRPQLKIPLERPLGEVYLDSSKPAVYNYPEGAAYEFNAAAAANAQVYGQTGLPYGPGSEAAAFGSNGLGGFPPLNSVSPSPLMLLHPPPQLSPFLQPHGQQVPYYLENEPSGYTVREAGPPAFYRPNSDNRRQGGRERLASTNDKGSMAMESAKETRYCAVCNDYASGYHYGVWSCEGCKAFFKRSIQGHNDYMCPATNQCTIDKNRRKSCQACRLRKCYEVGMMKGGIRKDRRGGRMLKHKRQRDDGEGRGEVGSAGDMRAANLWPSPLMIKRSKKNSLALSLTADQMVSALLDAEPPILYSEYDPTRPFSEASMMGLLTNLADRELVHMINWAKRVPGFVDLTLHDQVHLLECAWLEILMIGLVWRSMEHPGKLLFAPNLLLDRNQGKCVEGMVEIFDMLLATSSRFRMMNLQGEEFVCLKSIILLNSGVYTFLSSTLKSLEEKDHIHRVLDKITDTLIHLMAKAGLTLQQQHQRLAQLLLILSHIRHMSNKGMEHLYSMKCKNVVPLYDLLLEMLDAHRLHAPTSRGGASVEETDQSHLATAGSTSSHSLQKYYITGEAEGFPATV
Description: At study termination, the tumors were removed from the mice, and ERα levels were determined by immunoblotting the tumor homogenates. […] ERα levels from the various compound arms were compared to vehicle-treated animals by analyzing the tumor lysates on separate immunoblots (graphs in FIG. 10, FIG. 11, and FIG. 12 depict data from individual immunoblots) and the average ERα levels with standard deviation is shown.
Sampling: Tumors were measured twice weekly. Terminal sacrifice was ˜18 hr after last dose; tumors were harvested, divided, and flash frozen. ERα levels were determined by immunoblotting (see Appendix 1 for details).
Flash frozen tumors were removed from −80° C. storage and placed on dry ice. RIPA lysis buffer and Halt protease inhibitors were used at 400 μl per tumor sample. A steel ball (5 mm) was placed in each sample for tissue disruption. Samples were lysed with TissueLyzer at 24 Hz for 4 minutes. The homogenization was stopped half way through the process and the block flipped over for the duration of the process. […] Lysates were then measured for total protein concentration by BCA (per manufacturer's protocol). […]
Protein was transferred from gels to nitrocellulose with Bio-Rad Turbo on default setting. […] The blots were cut so that beta-actin and ERα can be detected from the same lane/sample. […]

Compound: O=C1CC[C@H](N2Cc3cc(N4CCN(CC5CCN(c6ccc([C@@H]7c8ccc(O)cc8CC[C@@H]7c7ccccc7)cc6)CC5)CC4)ccc3C2=O)C(=O)N1 [Compound (I-c), (3S)-3-[5-[4-[[1-[4-[(1R,2S)-6-hydroxy-2-phenyl-tetralin-1-yl]phenyl]-4-piperidyl]methyl]piperazin-1-yl]-1-oxo-isoindolin-2-yl]piperidine-2,6-dione]
- ERα degradation potency (estrogen receptor): single-digit nanomolar
- EC50 (MCF7 cells [1]): 10 nM
- MCF7 cell proliferation, single agent (MCF7 cells [2]): dose-dependent decrease
- reduction of tumor ERα levels vs vehicle (ERα): 73%

Reference: patent US20220193072A1, “METHODS OF TREATING BREAST CANCER WITH TETRAHYDRONAPHTHALENE DERIVATIVES AS ESTROGEN RECEPTOR DEGRADER” (Arvinas Operations, Inc., priority 2020, published 2022)
